This is an account of results in ChEMBL document CHEMBL1137829, “In vitro anti-parasitic activity of Cyclosporin A analogs on Trypanosoma cruzi” (Bioorg Med Chem Lett, 2004).

SMILES strings stand for the structures.

For assay [1], the system named is Trypanosoma cruzi. Put plainly: Compound was tested for the inhibition of Trypanosoma cruzi epimastigote growth after 72 hours of treatment. In kind it is functional, organism-based.
In assay [2] the test system is Trypanosoma cruzi. As to the kind of experiment: Effective concentration required for the lysis of Trypanosoma cruzi trypomastigotes in blood stream after 24 hours of treatment. In kind it is functional, organism-based.
Assay [3] is described as follows: Inhibition of Peptidyl-prolyl cis-trans isomerase Trypanosoma cruzi cyclophilin (CL Brener strain, p19).

With `CCC/C=C(/C)[C@@H](O)[C@H]1C(=O)N[C@@H]([C@@H](C)OCCCO)C(=O)N(C)CC(=O)N(C)[C@@H](CC(C)C)C(=O)N[C@@H](C(C)C)C(=O)N(C)[C@@H](CC(C)C)C(=O)N[C@@H](C)C(=O)N[C@H](C)C(=O)N(C)[C@@H](CC(C)C)C(=O)N(C)[C@@H](CC(C)C)C(=O)N(C)[C@@H](C(C)C)C(=O)N1C`, the IC50 (usually the concentration that inhibits the measured activity by half) in the assay with Trypanosoma cruzi [1] (read-out: IC50) worked out at 18.4 µM; in assay [3] it was 0.0221 µM. Also, the half-maximal effective concentration (EC50) – broadly, the concentration at which the effect is half-maximal – in the assay on Trypanosoma cruzi [2] was 36.8 µM.
The matching figures for `CC[C@@H]1NC(=O)[C@H]([C@H](O)/C(C)=C\CCCOC)N(C)C(=O)[C@H](C(C)C)N(C)C(=O)[C@H](CC(C)C)N(C)C(=O)[C@H](CC(C)C)N(C)C(=O)[C@@H](C)NC(=O)[C@H](C)NC(=O)[C@H](CC(C)C)N(C)C(=O)[C@H](C(C)C)NC(=O)[C@H](CC(C)C)N(C)C(=O)CN(C)C1=O`: 33.8 µM, 0.0255 µM and 76.1 µM.
`CC[C@@H]1NC(=O)[C@H]([C@H](O)C(C)C/C=C/c2ccccc2)N(C)C(=O)[C@H](C(C)C)N(C)C(=O)[C@H](CC(C)C)N(C)C(=O)[C@H](CC(C)C)N(C)C(=O)[C@@H](C)NC(=O)[C@H](C)NC(=O)[C@H](CC(C)C)N(C)C(=O)[C@H](C(C)C)NC(=O)[C@H](CC(C)C)N(C)C(=O)CN(C)C1=O` (stereo not given in full): the IC50 in the assay on Trypanosoma cruzi [1] (read-out: IC50) was found to be 0.82 µM; in assay [3] it was 0.0125 µM. In the assay with Trypanosoma cruzi [2], this compound registered an EC50 of 0.97 µM.
`CC[C@@H]1NC(=O)[C@H]([C@H](O)C(C)CCCc2ccccc2)N(C)C(=O)[C@H](C(C)C)N(C)C(=O)[C@H](CC(C)C)N(C)C(=O)[C@H](CC(C)C)N(C)C(=O)[C@@H](C)NC(=O)[C@H](C)NC(=O)[C@H](CC(C)C)N(C)C(=O)[C@H](C(C)C)NC(=O)[C@H](CC(C)C)N(C)C(=O)CN(C)C1=O` (stereo not given in full): the IC50 in the assay on Trypanosoma cruzi [1] (read-out: IC50) came to 3.41 µM; in assay [3], 0.0133 µM. The compound further showed an EC50 in the assay on Trypanosoma cruzi [2] of 2.66 µM.
In the case of `C/C=C/CC(C)[C@@H](O)[C@H]1C(=O)N[C@@H](CC)C(=O)N(C)CC(=O)N(C)[C@@H](CC(C)C)C(=O)N[C@@H](C(C)C)C(=O)N(C)[C@@H](CC(C)C)C(=O)N[C@@H](C)C(=O)N[C@H]([C@H](C)O)C(=O)N(C)[C@@H](CC(C)C)C(=O)N(C)[C@@H](CC(C)C)C(=O)N(C)[C@@H](C(C)C)C(=O)N1C` (stereo not given in full), the results for the IC50 (in the assay on Trypanosoma cruzi [1] (read-out: IC50); in assay [3]) were 6.93 µM and 0.0169 µM, respectively. The compound further came in with an EC50 in the assay with Trypanosoma cruzi [2] of 13.4 µM.
For `CC[C@@H]1NC(=O)[C@H]([C@H](O)/C(C)=C\CCC(=O)OC(C)C)N(C)C(=O)[C@H](C(C)C)N(C)C(=O)[C@H](CC(C)C)N(C)C(=O)[C@H](CC(C)C)N(C)C(=O)[C@@H](C)NC(=O)[C@H](C)NC(=O)[C@H](CC(C)C)N(C)C(=O)[C@H](C(C)C)NC(=O)[C@H](CC(C)C)N(C)C(=O)CN(C)C1=O`, in the assay on Trypanosoma cruzi [1] (read-out: IC50), the IC50 is 7.64 µM. The compound also registered an EC50 with Trypanosoma cruzi [2] of 58.6 µM.
Consider `CC[C@@H]1NC(=O)[C@H]([C@H](O)/C(C)=C\CCCN=[N+]=[N-])N(C)C(=O)[C@H](C(C)C)N(C)C(=O)[C@H](CC(C)C)N(C)C(=O)[C@H](CC(C)C)N(C)C(=O)[C@@H](C)NC(=O)[C@H](C)NC(=O)[C@H](CC(C)C)N(C)C(=O)[C@H](C(C)C)NC(=O)[C@H](CC(C)C)N(C)C(=O)CN(C)C1=O`, for which the IC50 in the assay with Trypanosoma cruzi [1] (read-out: IC50) worked out at 10.6 µM; in assay [3] it was 0.0232 µM. For the same compound, the EC50 in the assay with Trypanosoma cruzi [2] came out at 7.98 µM.
In the same order, the values of `CCC/C=C(/C)[C@@H](O)[C@H]1C(=O)N[C@@H](CC)C(=O)N(C)CC(=O)N(C)[C@@H](CC(C)CO)C(=O)N[C@@H](C(C)C)C(=O)N(C)[C@@H](CC(C)C)C(=O)N[C@@H](C)C(=O)N[C@H](C)C(=O)N(C)[C@@H](CC(C)C)C(=O)N(C)[C@@H](CC(C)C)C(=O)N(C)[C@@H](C(C)C)C(=O)N1C` (stereo not given in full) are 11.4 µM, 0.0193 µM and 153 µM.
In the case of `C/C=C/C[C@@H](C)[C@@H](O)[C@H]1C(=O)N[C@@H](CC)C(=O)N(C)CC(=O)N(C)[C@@H](CC(C)C)C(=O)N[C@@H](C(C)C)C(=O)N(C)[C@@H](CC(C)C)C(=O)N[C@@H](C)C(=O)N[C@H](C)C(=O)N(C)[C@@H](CC(C)C)C(=O)N(C)[C@@H](CC(C)C)C(=O)N(C)[C@@H](C(C)C)C(=O)N1C` [CYCLOSPORINE], in the assay with Trypanosoma cruzi [1], the IC50 turned out to be 5.39 µM. The compound also had an EC50 with Trypanosoma cruzi [2] of 7.19 µM.
